Patent publication US11412737B2, “Mixtures of beflubutamid or optically enriched forms thereof with a second herbicide” (FMC Corporation, priority 2016, dated 2022)

How the values were obtained:
Annual bluegrass (POAAN) = assay: post-emergence test, weed control; assay type: in vivo, Poa annua; details: post-emergent, 28 DAT, height 1-2 cm, rate g ai/ha by row: r7 94, r8 125, r9 188, r10 125, r11 250, r12 94+125, r13 125+125, r14 188+125, r15 94+250, r16 125+250, r17 188+250
Description: (§1) Test compositions containing the test compounds were diluted with water to provide the appropriate test rate concentrations.
(§2) For post-emergence testing, seeds of each species for each rate of application of each herbicide solution were planted in 7.5 cm×7.5 cm plastic pots filled with potting soil. The seeds were germinated and the resulting plants were allowed to grow in a greenhouse until they reached a growth stage, such as height, suitable for testing. Treatments were applied using compressed air in a track spray chamber at 30 gallons/acre (280 L/ha) using a TeeJet 8001E nozzle at 40 psi (2.76 bars). Pots of post-emergent treated plants were returned to the greenhouse and not watered for 24 hours after treatment. Thereafter they were regularly watered and fertilized for the duration of the test.
(§3) The control of weeds was evaluated in each experimental test at 21 for wheat and 28 days after treatment (DAT) for all species. Data were analyzed using Minitab software at 95% confidence interval. The results, shown as an average of the replications, were compared with results observed in untreated control flats in the same tests. Percent control was determined by a method similar to the 0 to 100 rating system disclosed in “Research Methods in Weed Science,” 2nd ed., B. Truelove, Ed.; Southern Weed Science Society; Auburn University, Auburn, Ala., 1977. The rating system is as follows in Table 1.

[1] = tested on: Littleseed canarygrass (PHAMI); assay: post-emergence test, weed control; assay type: in vivo, Phalaris minor; details: post-emergent, 28 DAT, height 7-8 cm, rate g ai/ha by row: r25 94, r26 125, r27 188, r28 125, r29 250, r30 94+125, r31 125+125, r32 188+125, r33 94+250, r34 125+250, r35 188+250
Description: as §1, §2, §3

Large crabgrass (DIGSA) = assay: post-emergence test, weed control; assay type: in vivo; details: post-emergent, 28 DAT; BFL at 188 g/ha, DCI at 125 g/ha, combination of both
Description: as §1, §2, §3

Shattercane (SOBIA) = assay: post-emergence test, weed control; assay type: in vivo; details: post-emergent, 28 DAT, height 8 cm; rate g ai/ha by row: r25 94, r26 125, r27 188, r28 125, r29 250, r30 94+125, r31 125+125, r32 188+125, r33 94+250, r34 125+250, r35 188+250
Description: as §1, §2, §3

Common ragweed (AMBEL) = assay: post-emergence test, weed control; assay type: in vivo; details: post-emergent, 28 DAT, height 3-4 cm, rate g ai/ha by row: r7 94, r8 125, r9 188, r10 125, r11 250, r12 94+125, r13 125+125, r14 188+125, r15 94+250, r16 125+250, r17 188+250
Description: as §1, §2, §3

Rice flatsedge (CYPIR) = assay: post-emergence test, weed control; assay type: in vivo; details: post-emergent, 28 DAT, height 1-2 cm, rate g ai/ha by row: r25 94, r26 125, r27 188, r28 125, r29 250, r30 94+125, r31 125+125, r32 188+125, r33 94+250, r34 125+250, r35 188+250
Description: as §1, §2, §3

Cheat grass (BROSE) = assay: post-emergence test, weed control; assay type: in vivo; details: post-emergent, 28 DAT, height 7 cm, rate g ai/ha by row: r7 94, r8 125, r9 188, r10 125, r11 250, r12 94+125, r13 125+125, r14 188+125, r15 94+250, r16 125+250, r17 188+250
Description: as §1, §2, §3

Redrice (ORYSA) = assay: post-emergence test, weed control; assay type: in vivo; details: post-emergent, 28 DAT; for percentage of weed control, ORYSA: height 8 cm, rate g ai/ha by row: r25 94, r26 125, r27 188, r28 125, r29 250, r30 94+125, r31 125+125, r32 188+125, r33 94+250, r34 125+250, r35 188+250
Description: as §1, §2, §3

Silky windgrass (APSEV) = assay: post-emergence test, weed control; assay type: in vivo; details: post-emergent, 28 DAT, height 1-1.5 cm, rate g ai/ha by row: r25 94, r26 125, r27 188, r28 125, r29 250, r30 94+125, r31 125+125, r32 188+125, r33 94+250, r34 125+250, r35 188+250
[2] = tested on: Common lambsquarters (CHEAL); assay: pre-emergence test, weed control; assay type: in vivo, Chenopodium album; details: pre-emergent, 28 DAT
Description: as §1
For pre-emergence testing, four disposable fiber flats (6 inch by 10 inch) for each rate of application of each herbicide solution were filled with top soil, to which seeds of each species were planted in furrows made by a template pressed on the top of the soil. The furrows were covered with soil after planting the seed and were watered well before application of the test compounds.
Fiber flats designated for treatment were placed in a spray chamber having a static platform and a movable sprayer and the height of the spray nozzle was 10.5 inches above the soil level. Once the sprayer was calibrated using water for spray volume of 30 gallons per acre, flats were sprayed with sprayer at a speed to receive a coverage equivalent of 30 gallons per acre. The application rates are those shown in the Tables below for the individual herbicidal solutions and the herbicide compositions of this invention. The pre-emergence flats were immediately placed in the greenhouse and watered lightly after treatment. Thereafter they were regularly watered and fertilized for the duration of the test.
as §3

Green foxtail (SETVI) = assay: post-emergence test, weed control; assay type: in vivo, Setaria viridis; details: post-emergent, 28 DAT, BFL at 187.5 g, combination of both
Description: as §1, §2, §3

SMILES: CCC(Oc1ccc(F)c(C(F)(F)F)c1)C(=O)NCc1ccccc1 (racemic) [BFL, 2-[4-fluoro-3-(trifluoromethyl)phenoxy]-N-(phenylmethyl)butanamide]
- percentage of weed control, POAAN (Annual bluegrass (POAAN); 94 g ai/ha): 0%
- percentage of weed control, POAAN (Annual bluegrass (POAAN); 188 g ai/ha): 2%
- percentage of weed control, PHAMI ([1]; 94 g ai/ha): 0%
- percentage of weed control, PHAMI ([1]; 188 g ai/ha): 1%
- control of large crabgrass (DIGSA) (Large crabgrass (DIGSA)): 19%
- percentage of weed control, SOBIA (Shattercane (SOBIA)): 0%
- percentage of weed control, AMBEL (Common ragweed (AMBEL); 94 g ai/ha): 5%
- percentage of weed control, AMBEL (Common ragweed (AMBEL); 125 g ai/ha): 6%
- percentage of weed control, AMBEL (Common ragweed (AMBEL); 188 g ai/ha): 12%
- percentage of weed control, CYPIR (Rice flatsedge (CYPIR); 94 g ai/ha): 0%
- percentage of weed control, CYPIR (Rice flatsedge (CYPIR); 188 g ai/ha): 4%
- percentage of weed control, BROSE (Cheat grass (BROSE); 94 g ai/ha): 0%
- percentage of weed control, BROSE (Cheat grass (BROSE); 188 g ai/ha): 6%
- percentage of weed control, ORYSA (Redrice (ORYSA); 94 g ai/ha): 46%
- percentage of weed control, ORYSA (Redrice (ORYSA); 125 g ai/ha): 44%
- percentage of weed control, ORYSA (Redrice (ORYSA); 188 g ai/ha): 28%
- control of red rice (Redrice (ORYSA); BFL at 187.5 g, PYX at 90 g, combination of both): 69%
- percentage of weed control, APSEV (Silky windgrass (APSEV); 94 g ai/ha): 0%
- percentage of weed control, APSEV (Silky windgrass (APSEV); 188 g ai/ha): 5%
- control of lambsquarters (CHEAL) ([2]; BFL at 125 g/ha, DCI at 125 g/ha, combination of both): 42%
- percentage of weed control, CHEAL ([2]; rate g ai/ha by row: r4 94, r5 50, r6 100, r7 52.5, r8 70, r9 94+52.5, r10 94+70, r11 50+52.5, r12 50+70, r13 100+52.5, r14 100+70): 16%
- control of green foxtail (Green foxtail (SETVI); PTX at 890 g): 54%
- control of green foxtail (Green foxtail (SETVI); PYX at 90 g): 54%
